Active and inactive are the calls of the source. The rule behind the calls is not given here.
Assays:
MGC-803 [1] = test: Inhibition of cell invasion in human MGC-803 cells measured after 24 hrs by crystal violet staining based imaging transwell assay; type: functional; conditions: DDE = dose-dependent effect
in vivo [2] = type: ADME, organism-based; conditions: ICR, mouse, iv, 5 mg/kg
MGC-803 [3] = test: Antitumor activity against human MGC-803 cells xenografted in BALB/c nude mouse assessed as reduction in phosphorylated STAT3 at Y705 residue at 5 mg/kg, ip measured every day for 20 days by immunohistochemical analysis; type: functional, organism-based; conditions: time 20.0 day
AGS [4] = test: Antiproliferative activity against human AGS cells assessed as reduction in cell viability at 1 to 3 uM incubated for 72 hrs by Edu incorporation assay; type: functional, cell-based; conditions: dose 1-3 µM
MGC-803 [5] = test: Antitumor activity against human MGC-803 cells xenografted in BALB/c nude mouse assessed as reduction in Ki67 expression at 5 mg/kg, ip measured every day for 20 days by immunohistochemical analysis; type: functional, organism-based; conditions: time 20.0 day
MGC-803 [6] = test: Antiproliferative activity against human MGC-803 cells assessed as reduction in cell viability at 3 to 5 uM incubated for 72 hrs by Edu incorporation assay; type: functional, cell-based; conditions: dose 3-5 µM
MGC-803 [7] = test: Antitumor activity against human MGC-803 cells xenografted in BALB/c nude mouse assessed as reduction in tumor progression at 5 mg/kg, ip measured every day for 20 days by immunohistochemical analysis; type: functional, organism-based; conditions: time 20.0 day
[8] = Toxicity in nude BALB/c nude mouse xenografted with human MGC-803 cells assessed as morphological changes in liver at 5 to 15 mg/kg, ip measured every day for 20 days by H and E staining based assay; type: organism-based; conditions: in vivo, 480 h, time 20 day
[9] = Toxicity in BALB/c nude mouse xenografted with MGC-803 cells assessed as effect on body weight at 15 mg/kg, ip measured every day for 20 days; type: organism-based; conditions: in vivo, 480 h, time 20 day
[10] = Half life in ICR mouse at 5 mg/kg, iv measured upto 24 hrs by LC-MS/MS analysis; type: ADME, organism-based; conditions: in vivo
[11] = biological target: T1, Signal transducer and activator of transcription 3 (Homo sapiens, UniProt P40763); test: Inhibition of STAT3 phosphorylation at Tyr705 residue in human MGC-803 cells incubated for 24 hrs by Western blot analysis; type: cell-based; conditions: dose 3-5 µM, DDE = dose-dependent effect
MGC-803 [12] = test: Antitumor activity against human MGC-803 cells xenografted in BALB/c nude mouse assessed as reduction in phosphorylated STAT3 at Y705 residue at 15 mg/kg, ip measured every day for 20 days by immunohistochemical analysis; type: functional, organism-based; conditions: time 20.0 day
MGC-803 [13] = test: Antitumor activity against human MGC-803 cells xenografted in ip dosed BALB/c nude mouse assessed as supression of tumor growth measured every day for 20 days; type: functional, organism-based; conditions: dose 5-15 mg/kg, time 20.0 day, DDE = dose-dependent effect
[14] = biological target: T1, Signal transducer and activator of transcription 3; test: Inhibition of STAT3 transcriptional activity in human MGC-803 cells assessed as downregulation of C-myc protein expression at 3 to 5 uM incubated for 24 hrs by Western blot analysis; type: cell-based; conditions: dose 3-5 µM
[15] = Toxicity in nude BALB/c nude mouse xenografted with human MGC-803 cells assessed as morphological changes in heart at 5 to 15 mg/kg, ip measured every day for 20 days by H and E staining based assay; type: organism-based; conditions: in vivo, 480 h, time 20 day
[16] = biological target: T1, Signal transducer and activator of transcription 3; test: Inhibition of IL-6 induced FLAG/HA-tagged STAT3 dimerization in human HEK293T cells pretreated for 24 hrs followed by IL-6 stimulation and measured after 1 hr by immunoprecipitation assay; type: cell-based; conditions: time 25.0 hrs, DDE = dose-dependent effect
[17] = Cmax in ICR mouse at 5 mg/kg, iv measured upto 24 hrs by LC-MS/MS analysis; type: ADME, organism-based; set-up: time < 24 hrs, dose 5 mg/kg, route iv; conditions: in vivo
[18] = biological target: T1, Signal transducer and activator of transcription 3; test: Binding affinity to full length wild type STAT3-SH2 domain (unknown origin) assessed as association constant by SPR analysis
AGS [19] = test: Inhibition of cell invasion in human AGS cells measured after 24 hrs by crystal violet staining based imaging transwell assay; type: functional; conditions: dose 1-3 µM, DDE = dose-dependent effect
[20] = Toxicity in nude BALB/c nude mouse xenografted with human MGC-803 cells assessed as morphological changes in kidney at 5 to 15 mg/kg, ip measured every day for 20 days by H and E staining based assay; type: organism-based; conditions: in vivo, 480 h, time 20 day
[21] = Clearance in ICR mouse at 5 mg/kg, iv measured upto 24 hrs by LC-MS/MS analysis; type: ADME, organism-based; conditions: in vivo
[22] = biological target: T1, Signal transducer and activator of transcription 3; test: Binding affinity to full length wild type STAT3-SH2 domain (unknown origin) assessed as equilibrium dissociation constant by SPR analysis
AGS [23] = test: Inhibition of colony formation in human AGS cells at 0.5 uM incubated for 10 to 15 days by crystal violet staining based assay; type: functional, cell-based; conditions: time 10-15 day
AGS [24] = test: Induction of apoptosis in human AGS cells at 3 uM incubated for 72 hrs by V-FITC/PI staining based flow cytometry assay; type: functional
AGS [25] = test: Induction of apoptosis in human AGS cells at 1 uM incubated for 72 hrs by V-FITC/PI staining based flow cytometry assay; type: functional
[26] = Toxicity in nude BALB/c nude mouse xenografted with human MGC-803 cells assessed as morphological changes in lung at 5 to 15 mg/kg, ip measured every day for 20 days by H and E staining based assay; type: organism-based; conditions: in vivo, 480 h, time 20 day
in vivo [27] = type: ADME, organism-based; conditions: ICR, mouse, iv, 5 mg/kg; remark: listed apart in the source

T1 sequence (P40763 whole entry): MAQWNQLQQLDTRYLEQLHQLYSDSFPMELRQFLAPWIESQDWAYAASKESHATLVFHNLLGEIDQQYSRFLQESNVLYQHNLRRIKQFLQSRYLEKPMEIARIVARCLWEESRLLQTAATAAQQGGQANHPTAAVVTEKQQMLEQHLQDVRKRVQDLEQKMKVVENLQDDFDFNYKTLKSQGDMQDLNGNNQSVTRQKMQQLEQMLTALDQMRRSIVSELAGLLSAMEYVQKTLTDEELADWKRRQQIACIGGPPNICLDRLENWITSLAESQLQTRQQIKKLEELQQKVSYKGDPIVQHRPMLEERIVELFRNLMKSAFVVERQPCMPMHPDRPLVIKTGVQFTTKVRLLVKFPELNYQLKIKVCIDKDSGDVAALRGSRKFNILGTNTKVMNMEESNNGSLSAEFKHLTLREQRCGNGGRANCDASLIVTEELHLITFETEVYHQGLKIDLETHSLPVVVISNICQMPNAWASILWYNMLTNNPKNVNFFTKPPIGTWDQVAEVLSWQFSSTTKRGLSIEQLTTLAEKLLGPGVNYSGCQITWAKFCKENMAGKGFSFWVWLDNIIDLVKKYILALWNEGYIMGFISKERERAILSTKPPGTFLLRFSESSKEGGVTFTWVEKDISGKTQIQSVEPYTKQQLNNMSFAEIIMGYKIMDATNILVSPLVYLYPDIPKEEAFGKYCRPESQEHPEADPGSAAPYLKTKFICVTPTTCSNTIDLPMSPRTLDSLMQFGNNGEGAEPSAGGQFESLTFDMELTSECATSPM

AUC(0-inf) at 24 h (in vivo [2]): 490 ng·h/mL | half-life [10]: 1.25 h | inhibition [11]: Dde | inhibition [14]: Active | inhibition [16]: Dde | Cmax [17]: 1500 ng/mL | Ka [18]: 1.25 10^3/M/s | clearance [21]: 176 mL/min/kg | Kd [22]: 5.02 µM | AUC(0-t) at 24 h (in vivo [27]): 485 ng·h/mL
SMILES: CN(CC(=O)N(Cc1ccc(C2CCCCC2)cc1)c1ccc(B(O)O)cc1)S(=O)(=O)c1c(F)c(F)c(F)c(F)c1F
inhibition (MGC-803 [1]): Dde | Activity (MGC-803 [3]): Active | Activity (AGS [4]): Active | Activity (MGC-803 [5]): Active | Activity (MGC-803 [6]): Active | Activity (MGC-803 [7]): Active | Activity [8]: Non-Toxic | Activity [9]: Non-Toxic | Activity (MGC-803 [12]): Active | Activity (MGC-803 [13]): Dde | Activity [15]: Non-Toxic | inhibition (AGS [19]): Dde | Activity [20]: Non-Toxic | inhibition (AGS [23]): Active | Activity (AGS [24]): 26.7% | Activity (AGS [25]): 13% | Activity [26]: Non-Toxic

Source: ChEMBL document CHEMBL5214948, “Boronic Acid: A Novel Pharmacophore Targeting Src Homology 2 (SH2) Domain of STAT3” (J Med Chem, 2022)
